Measurements reported in patent US5616563A, “Glutathione N-hydroxycarbamoyl thioesters and method of inhibiting neoplastic growth” (University of Maryland Baltimore Campus, priority 1994, dated 1997).

Tested on: human erythrocytes
Experiment: Erythrocyte uptake of 35S-labeled compounds
Procedure: In order to test the ability of human erythrocytes to take up the above enediol and its ethyl ester derivative, suspensions of washed human erythrocytes were separately incubated with [^35 S] GSH, [^35 S]S-(N-hydroxy N-methylcarbamoyl) glutathione, and with [^35 S] S-(N-hydroxy N-methylcarbamoyl) glutathione[glycyl]-O-ethyl ester. The tests were conducted with 50:50 (v:v) erythrocytes in PBS buffer at 37° C. in the presence of 8.5 mM extracellular [^35 S] labeled compounds.

CCOC(=O)CNC(=O)[C@H](CSC(=O)N(C)O)NC(=O)CC[C@H](N)C(=O)O [[^35 S] .box-solid., [^35 S] S-(N-Hydroxy N-Methyl Carbamoyl) Glutathione [Glycyl]-O-Ethyl Ester]
diffusion rate into erythrocytes relative to [35S] 2: ~ 2 fold
Extracellular Total 35S species (0 h): 8.54 mM
Extracellular [35S] S-(N-hydroxy N-methylcarbamoyl) glutathione (0 h): 1.27 mM
Extracellular [35S] S-(N-hydroxy N-methylcarbamoyl) glutathione glycyl-O-ethyl ester (0 h): 7.22 mM
Intracellular Total 35S species (0 h, 8.5 mM extracellular, 37° C.): ~ 0.01 mM
Extracellular [35S] S-(N-hydroxy N-methylcarbamoyl) glutathione (0 h, listed as [^35 S] 2(Et)): 1.3 mM
Extracellular Total 35S species (6 h): 8.60 mM
Extracellular [35S] S-(N-hydroxy N-methylcarbamoyl) glutathione (6 h): 1.27 mM
Extracellular [35S] S-(N-hydroxy N-methylcarbamoyl) glutathione glycyl-O-ethyl ester (6 h): 7.17 mM
Intracellular Total 35S species (6 h): 0.05 mM
Intracellular [35S] S-(N-hydroxy N-methylcarbamoyl) glutathione (6 h): ~ 0.01 mM
Intracellular [35S] S-(N-hydroxy N-methylcarbamoyl) glutathione glycyl-O-ethyl ester (6 h): ~ 0.01 mM
Extracellular Total 35S species (12 h): 8.62 mM
Extracellular [35S] S-(N-hydroxy N-methylcarbamoyl) glutathione (12 h): 1.42 mM
Extracellular [35S] S-(N-hydroxy N-methylcarbamoyl) glutathione glycyl-O-ethyl ester (12 h): 7.02 mM
Intracellular Total 35S species (12 h): 0.07 mM
Intracellular [35S] S-(N-hydroxy N-methylcarbamoyl) glutathione (12 h): 0.02 mM
Intracellular [35S] S-(N-hydroxy N-methylcarbamoyl) glutathione glycyl-O-ethyl ester (12 h): 0.03 mM
Extracellular Total 35S species (24 h): 8.49 mM
Extracellular [35S] S-(N-hydroxy N-methylcarbamoyl) glutathione (24 h): 1.65 mM
Extracellular [35S] S-(N-hydroxy N-methylcarbamoyl) glutathione glycyl-O-ethyl ester (24 h): 6.62 mM
Intracellular Total 35S species (24 h): 0.20 mM
Intracellular [35S] S-(N-hydroxy N-methylcarbamoyl) glutathione (24 h): 0.05 mM
Intracellular [35S] S-(N-hydroxy N-methylcarbamoyl) glutathione glycyl-O-ethyl ester (24 h): 0.12 mM
Extracellular Total 35S species (36 h): 8.09 mM
Extracellular [35S] S-(N-hydroxy N-methylcarbamoyl) glutathione (36 h): 1.83 mM
Extracellular [35S] S-(N-hydroxy N-methylcarbamoyl) glutathione glycyl-O-ethyl ester (36 h): 6.01 mM
Intracellular Total 35S species (36 h): 0.45 mM
Intracellular [35S] S-(N-hydroxy N-methylcarbamoyl) glutathione (36 h): 0.14 mM
Intracellular [35S] S-(N-hydroxy N-methylcarbamoyl) glutathione glycyl-O-ethyl ester (36 h): 0.28 mM
Extracellular Total 35S species (48 h): 7.90 mM
Extracellular [35S] S-(N-hydroxy N-methylcarbamoyl) glutathione (48 h): 1.89 mM
Extracellular [35S] S-(N-hydroxy N-methylcarbamoyl) glutathione glycyl-O-ethyl ester (48 h): 5.70 mM
Intracellular Total 35S species (48 h): 0.67 mM
Intracellular [35S] S-(N-hydroxy N-methylcarbamoyl) glutathione (48 h): 0.24 mM
Intracellular [35S] S-(N-hydroxy N-methylcarbamoyl) glutathione glycyl-O-ethyl ester (48 h): 0.39 mM
final intracellular [35S] 2 relative to that expected from import of contaminating [35S] 2 (48 h): about 3 fold
Extracellular [35S] S-(N-hydroxy N-methylcarbamoyl) glutathione (48 h, listed as [^35 S] 2(Et)): 1.9 mM
